Source: US11566047B2, “Peptide or pharmaceutically acceptable salt thereof, or prodrug thereof” (TOKYO UNIVERSITY OF PHARMACY & LIFE SCIENCES, priority 2016, dated 2023)
Square brackets hold non-standard residues; d marks the D form. Peptide text beside a SMILES is read from it. * marks the point of attachment. Diglycolyl(TOTA) = NCCCOCCOCCOCCCNC(=O)COCC(=O)*; Propanoyl(3,3-Ph2) = O=C(CC(c1ccccc1)c1ccccc1)*; Chg = N[C@H](C(=O)O)C1CCCCC1; X1 = COCCOCCOCCOCCC(=O)*; R111 = not defined here; Ahx = NCCCCCC(=O)O

The molecules below were run against T1, myostatin (Homo sapiens, UniProt O14793) (assay: cell-based). Settings: HEK293, read-out: luciferase activity (relative; myostatin without test sample = 100%).
T1 sequence (O14793 267-375): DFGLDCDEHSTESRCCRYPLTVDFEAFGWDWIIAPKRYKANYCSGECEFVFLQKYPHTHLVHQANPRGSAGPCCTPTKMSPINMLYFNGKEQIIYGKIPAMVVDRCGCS
Method: Human embryo kidney cell HEK293 cells were cultured in a 5% (v/v) CO2 incubator set to 37° C. using DMEM (NACALAI TESQUE, INC.) including a 10% (v/v) fetal bovine serum (FBS) added with a 1% (v/v) non-essential amino acid (Wako Pure Chemical Corporation).
(2) In Vitro Reporter Assay
HEK293 cells were seeded on a D-Lys-corted 96-well transparent plate (Thermo Fisher Scientific Inc.) in an amount of 2.0×10^4 cells (100 μL DMEM+10% (v/v) FBS) per well and were cultured for 24 hours.
The cells were cultured at 37° C. for 24 hours, and after the cell culture solution was replaced with serum-free DMEM, the cells were cultured for 8 hours. Incidentally, pGL4.48 [luc2P/SBE/Hygro] includes firefly luciferase reporter gene luc2P under Smad binding region (SBE) control, and when a signaling pathway by the myostatin is activated, intracellular Smad forms a complex, and the complex is bonded to SBE to promote transcription of luc2P.
The peptide as a test sample was suspended as a stock solution using DMSO to become 10 mM and stored at −30° C. Before 1 hour from addition to the culture medium, the peptide and a myostatin (Merck Millipore Corp.) were suspended with serum-free DMEM and left to stand still at room temperature (25° C.) for 20 minutes. Subsequently, a peptide with an arbitrary final concentration (0.3 to […]) and 8 ng/mL of myostatin were added to the culture medium, and then culturing was performed for 4 hours. After culturing for 4 hours, the culture solution was removed by an aspirator and the cells were washed with 1×PBS. Thereafter, Passive Lysis buffer (Promega Corporation) was added in an amount of 50 μL per well to dissolve the cells. The dissolving solution was subjected to centrifugal separation at 4500 rpm for 6 minutes under the condition of 4° C. After 20 μL of supernatant subjected to centrifugal separation was transferred to a white 96-well plate (Costar), 50 μL of Luciferase Assay Reagent (Promega Corporation) was then added, emission was detected by Luminoskan Ascent (Thermo Fisher Scientific Inc.), and a firefly luciferase activity was measured. Further, after 50 μL of Stop & Glo Buffer (Promega Corporation) was added, emission was detected by Luminoskan Ascent, and a Renilla luciferase activity was measured to be regarded as an internal control.

Molecule	remaining activity at 0.3 µM
CC[C@H](C)[C@H](NC(=O)[C@H](Cc1ccc(O)cc1)NC(=O)CC(c1ccccc1)c1ccccc1)C(=O)N[C@@H](CCCNC(=N)N)C(=O)N[C@@H](Cc1c[nH]c2ccccc12)C(=O)N[C@H](C(=O)N[C@@H](CCCNC(=N)N)C(=O)N[C@H](C(=O)N[C@@H](CCC(N)=O)C(=O)N[C@H](C(=O)N[C@@H](Cc1c[nH]c2ccccc12)C(=O)N[C@@H](CO)C(=O)N[C@@H](CCCNC(=N)N)C(=O)N[C@H](C(=O)N1CCC[C@H]1C(=O)N[C@@H](CC(C)C)C(N)=O)C1CCCCC1)[C@@H](C)CC)C1CCCCC1)[C@@H](C)CC [nPDM-85, R^114-YIRWIR-Chg-QIWSR-Chg-PL-NH2] ({Propanoyl(3,3-Ph2)}-YIRWIR[Chg]QIWSR[Chg]PL-NH2)	≤ 60%
CC[C@H](C)[C@H](NC(=O)[C@H](CCC(N)=O)NC(=O)[C@@H](NC(=O)[C@H](CCCNC(=N)N)NC(=O)[C@@H](NC(=O)[C@@H](Cc1c[nH]c2ccccc12)NC(=O)[C@H](CCCNC(=N)N)NC(=O)[C@@H](NC(=O)[C@H](Cc1ccc(O)cc1)NC(=O)[C@@H](N)Cc1c[nH]c2ccccc12)[C@@H](C)CC)[C@@H](C)CC)C1CCCCC1)C(=O)N[C@@H](Cc1c[nH]c2ccccc12)C(=O)N[C@@H](CO)C(=O)N[C@@H](CCCNC(=N)N)C(=O)N[C@H](C(=O)N1CCC[C@H]1C(=O)N[C@@H](CC(C)C)C(N)=O)C1CCCCC1 [nPDM-80, WYIRwIR-Chg-QIWSR-Chg-PL-NH2] (H-WYIR[dW]IR[Chg]QIWSR[Chg]PL-NH2)	≤ 60%
CC[C@H](C)[C@H](NC(=O)[C@H](CCC(N)=O)NC(=O)[C@@H](NC(=O)[C@H](CCCNC(=N)N)NC(=O)[C@@H](NC(=O)[C@@H](Cc1c[nH]c2ccccc12)NC(=O)[C@H](CCCNC(=N)N)NC(=O)[C@@H](NC(=O)[C@H](Cc1ccc(O)cc1)NC(=O)[C@H](Cc1c[nH]c2ccccc12)NC(=O)CCCCCNC(=O)CCOCCOCCOCCOC)[C@@H](C)CC)[C@@H](C)CC)C1CCCCC1)C(=O)N[C@@H](Cc1c[nH]c2ccccc12)C(=O)N[C@@H](CO)C(=O)N[C@@H](CCCNC(=N)N)C(=O)N[C@H](C(=O)N1CCC[C@H]1C(=O)N[C@@H](CC(C)C)C(N)=O)C1CCCCC1 [PDM-80, R^111-WYIRwIR-Chg-QIWSR-Chg-PL-NH2] ({X1-Ahx}-WYIR[dW]IR[Chg]QIWSR[Chg]PL-NH2)	≤ 60%
CC[C@H](C)[C@H](NC(=O)[C@H](CCC(N)=O)NC(=O)[C@@H](NC(=O)[C@H](CCCCN)NC(=O)[C@@H](NC(=O)[C@H](Cc1c[nH]c2ccccc12)NC(=O)[C@H](CCC(=O)O)NC(=O)[C@@H](NC(=O)[C@H](Cc1ccc(O)cc1)NC(=O)[C@@H](N)Cc1c[nH]c2ccccc12)[C@@H](C)CC)[C@@H](C)CC)[C@@H](C)CC)C(=O)N[C@@H](Cc1c[nH]c2ccccc12)C(=O)N[C@@H](CO)C(=O)N[C@@H](CCCCN)C(=O)N[C@@H](CC(C)C)C(=O)N[C@@H](CCCNC(=N)N)C(=O)N[C@@H](CC(C)C)C(N)=O [nPDM-55, WYIEWIKIQIWSKLRL-NH2] (H-WYIEWIKIQIWSKLRL-NH2)	≤ 60%
CC[C@H](C)[C@H](NC(=O)[C@H](CCC(N)=O)NC(=O)[C@@H](NC(=O)[C@H](CCCCN)NC(=O)[C@@H](NC(=O)[C@@H](Cc1c[nH]c2ccccc12)NC(=O)[C@H](CCCNC(=N)N)NC(=O)[C@@H](NC(=O)[C@H](Cc1ccc(O)cc1)NC(=O)[C@H](Cc1c[nH]c2ccccc12)NC(=O)CCCCCNC(=O)COCC(=O)NCCCOCCOCCOCCCN)[C@@H](C)CC)[C@@H](C)CC)C1CCCCC1)C(=O)N[C@@H](Cc1c[nH]c2ccccc12)C(=O)N[C@@H](CO)C(=O)N[C@@H](CCCCN)C(=O)N[C@H](C(=O)N[C@@H](CCCNC(=N)N)C(=O)N[C@@H](CC(C)C)C(N)=O)C1CCCCC1 [PDM-89, R^115-WYIRwIK-Chg-QIWSK-Chg-RL-NH2] ({Diglycolyl(TOTA)-Ahx}-WYIR[dW]IK[Chg]QIWSK[Chg]RL-NH2)	≤ 60%

Same assay, conditions: at a concentration of 1 μM or more; 8 ng/mL myostatin; HEK293

Molecule	myostatin inhibitory activity (concentration-dependent evaluation)
R^111-WYIEWIKIQIISKLRL-NH2 (R111-WYIEWIKIQIISKLRL-NH2; reading uncertain; also: printed as R^111-WYIEWIKIQIISKLRL-NH2) [PDM-27]	significant myostatin inhibitory activity
